Laboratory results reported in patent US10357574B2, “Optical sensor conjugates for detecting reactive oxygen and/or reactive nitrogen species in vivo” (The General Hospital Corporation, priority 2010, dated 2019).

Test system: infarcted mouse hearts
Experiment: Mouse model of myocardial infarction (permanent coronary ligation), fluorescence imaging of heart sections
Format: in vivo, mice (C57/B6)
Settings: injected intravenously into the tail-vein 12-14 hours after MI, imaged 24 hours later
Method: To investigate the utility of the optical sensor conjugate in vivo, we determined the ability of the sensor to monitor ischemia and inflammation as a result of permanent coronary ligation in a mouse model of myocardial infarction. For all experiments, the agents (optical sensor conjugate or fluorogenic small molecule with linker) were injected intravenously into the tail-vein of the mice 12-14 hours after MI and imaged 24 hours later when neutrophil recruitment to the infarct is high.
Anesthesized mice were intubated and a thoracotomy was performed in the 4th left intercostal space to visualize the left ventricle where the left coronary artery was ligated. […]
Hearts were excised and rinsed in PBS and cut into myocardial rings of 1-mm thickness and either immediately stained with 2-3-5-triphenyl tetrazolium chloride (TTC) (Nahrendorf et al. Circulation, 113:1196-202 (2006)) to highlight the infarcted tissue or used for histological analysis. Fluorescence reflectance imaging of side-by-side myocardial rings of controls and injected hearts was performed in the GFP channel (lexc=450-480 nm with lem 500-530 nm) and Cy5 channel (lexc=620-650 nm with lem=680-710 nm) using an Olympus OV-100 system (Olympus, Center Valley, Pa.). For histology and fluorescence microscopy, the tissue was embedded in OCT medium (Sakura Finetek, Torrance, Calif.). […]

**Q.** With `CCN(CC)c1ccc2c(c1)Oc1cc(N(CC)CC)ccc1N2C(=O)CCCC(=O)O` [small molecule probe, sodium 5-(3,7-bis(diethylamino)-10H-phenoxazin-10-yl)-5-oxopentanoate] as the compound, how does the “localization of fluorescence in coronal heart sections (fluorescence reflectance imaging)” value read?
**A.** washed out of the infarct and into the myocardium
